Patent US20240108602A1, “TREATMENT OF MENTAL DISORDERS” (GH Research Ireland Limited, priority 2022, published 2024)

Tested on: Salmonella typhimurium (TA98, TA100, TA1535 and TA1537)
Test: Bacterial mutation test, Salmonella typhimurium
Type: cell-based
Excerpt: These conditions included treatments at concentrations up to […] (the maximum recommended concentration according to current regulatory guidelines), in the absence and in the presence of a rat liver metabolic activation system (S-9).

Q: For `COc1ccc2[nH]cc(CCN(C)C)c2c1` [5-MeO-DMT], which “in vitro genotoxicity assessment” value is on record?
A: negative

Q: And the induction of mutation (up to 5000 μg/plate, with and without S-9)?
A: did not induce mutation
